Drawing on the OligoGym collection, this text covers 3 h FOB score for 18 substances.

HELM strings list units from the 5' end as sugar, base in round brackets, then linkage (d deoxyribose, r ribose, m 2'-O-methyl, p phosphodiester). Strings are as the collection lists them; they lack the last nucleoside at the 3' end of the tested compound. [moe] = 2'-O-(2-methoxyethyl) (MOE); [sp] = phosphorothioate linkage; [m5C] = 5-methylcytosine

This data set addresses ATXN2. The experiment in a line: mouse, dose not given. As to conditions: ASO.
In the case of “RNA1{[moe](A)[sp].[moe]([m5C])p.[moe](A)p.[moe](G)p.[moe](T)p.d(T)[sp].d(T)[sp].d([m5C])[sp].d(A)[sp].d([m5C])[sp].d(T)[sp].d(A)[sp].d(G)[sp].d(G)[sp].d(T)[sp].[moe](T)p.[moe]([m5C])p.[moe](T)[sp].[moe]([m5C])}$$$$ (last 3' nucleoside missing)”, the 3 h FOB score was found to be 3.25 score 0-7.

“RNA1{[moe](A)[sp].[moe]([m5C])p.[moe](A)p.[moe](T)p.[moe](A)p.d(G)[sp].d(G)[sp].d(T)[sp].d(T)[sp].d(A)[sp].d(G)[sp].d(A)[sp].d(A)[sp].d(T)[sp].d(T)[sp].[moe](T)p.[moe](T)p.[moe]([m5C])[sp].[moe]([m5C])}$$$$ (last 3' nucleoside missing)” returned a 3 h FOB score of 1 score 0-7. As for “RNA1{[moe](A)[sp].[moe]([m5C])p.[moe](A)p.[moe]([m5C])[sp].[moe](A)[sp].d(G)[sp].d(T)[sp].d(T)[sp].d(T)[sp].d([m5C])[sp].d(A)[sp].d([m5C])[sp].d(T)[sp].d(A)[sp].d(G)[sp].[moe](G)p.[moe](T)p.[moe](T)[sp].[moe]([m5C])}$$$$ (last 3' nucleoside missing)”, the figure is 2 score 0-7. For “RNA1{[moe](A)[sp].[moe]([m5C])p.[moe](A)p.[moe]([m5C])p.[moe](A)[sp].d(G)[sp].d(T)[sp].d(T)[sp].d(T)[sp].d([m5C])[sp].d(A)[sp].d([m5C])[sp].d(T)[sp].d(A)[sp].d(G)[sp].[moe](G)p.[moe](T)p.[moe](T)[sp].[moe]([m5C])}$$$$ (last 3' nucleoside missing)”, the 3 h FOB score was determined as 4.75 score 0-7.

“RNA1{[moe](A)[sp].[moe]([m5C])p.[moe](A)p.[moe]([m5C])p.[moe](A)p.[moe](G)p.d(T)[sp].d(T)[sp].d(T)[sp].d([m5C])[sp].d(A)[sp].d([m5C])[sp].d(T)[sp].d(A)[sp].d(G)[sp].d(G)[sp].[moe](T)p.[moe](T)[sp].[moe]([m5C])}$$$$ (last 3' nucleoside missing)” gave a 3 h FOB score of 1 score 0-7. The same measure for “RNA1{[moe](A)[sp].[moe]([m5C])p.[moe](A)p.[moe]([m5C])p.[moe](A)p.d(G)[sp].d(T)[sp].d(T)[sp].d(T)[sp].d([m5C])[sp].d(A)[sp].d([m5C])[sp].d(T)[sp].d(A)[sp].d(G)[sp].[moe](G)p.[moe](T)p.[moe](T)[sp].[moe]([m5C])}$$$$ (last 3' nucleoside missing)”: 0 score 0-7. The same measure for “RNA1{[moe](A)[sp].[moe]([m5C])p.[moe](A)p.[moe]([m5C])p.d(A)[sp].d(G)[sp].d(T)[sp].d(T)[sp].d(T)[sp].d([m5C])[sp].d(A)[sp].d([m5C])[sp].d(T)[sp].d(A)[sp].[moe](G)p.[moe](G)p.[moe](T)p.[moe](T)[sp].[moe]([m5C])}$$$$ (last 3' nucleoside missing)”: 0 score 0-7; for “RNA1{[moe](A)[sp].[moe]([m5C])p.[moe](G)p.[moe]([m5C])p.[moe](G)p.d(G)[sp].d(T)[sp].d(G)[sp].d(A)[sp].d(A)[sp].d(T)[sp].d(T)[sp].d([m5C])[sp].d(T)[sp].d(G)[sp].[moe](T)p.[moe]([m5C])p.[moe](T)[sp].[moe]([m5C])}$$$$ (last 3' nucleoside missing)”: 1 score 0-7.

As for “RNA1{[moe](A)[sp].[moe]([m5C])p.[moe](G)p.[moe]([m5C])p.[moe](T)p.d(G)[sp].d(T)[sp].d(A)[sp].d(T)[sp].d(T)[sp].d(T)[sp].d(T)[sp].d(T)[sp].d(A)[sp].d([m5C])[sp].[moe](T)p.[moe]([m5C])p.[moe](A)[sp].[moe]([m5C])}$$$$ (last 3' nucleoside missing)”, the 3 h FOB score worked out at 0 score 0-7. Turning to “RNA1{[moe](A)[sp].[moe]([m5C])p.[moe](T)p.[moe](G)p.[moe](A)p.d(G)[sp].d(T)[sp].d(T)[sp].d([m5C])[sp].d(T)[sp].d(A)[sp].d(T)[sp].d(A)[sp].d(G)[sp].d(G)[sp].[moe](T)p.[moe](G)p.[moe]([m5C])[sp].[moe](T)}$$$$ (last 3' nucleoside missing)”, the 3 h FOB score turned out to be 3 score 0-7. Substance “RNA1{[moe](A)[sp].[moe]([m5C])p.[moe](T)p.[moe](G)p.[moe](G)p.d(A)[sp].d(T)[sp].d(T)[sp].d([m5C])[sp].d(T)[sp].d(G)[sp].d(T)[sp].d(A)[sp].d([m5C])[sp].d(T)[sp].[moe](T)p.[moe](T)p.[moe](T)[sp].[moe]([m5C])}$$$$ (last 3' nucleoside missing)” returned a 3 h FOB score of 2 score 0-7. “RNA1{[moe](A)[sp].[moe]([m5C])p.[moe](T)p.[moe](G)p.[moe](T)p.d(T)[sp].d(T)[sp].d([m5C])[sp].d(G)[sp].d(A)[sp].d([m5C])[sp].d([m5C])[sp].d(T)[sp].d([m5C])[sp].d(T)[sp].[moe](G)p.[moe](A)p.[moe](A)[sp].[moe](A)}$$$$ (last 3' nucleoside missing)” registered a 3 h FOB score of 4 score 0-7.

“RNA1{[moe](A)[sp].[moe]([m5C])p.[moe](T)p.[moe](T)p.[moe](G)p.d(T)[sp].d(A)[sp].d([m5C])[sp].d(T)[sp].d(T)[sp].d([m5C])[sp].d(A)[sp].d([m5C])[sp].d(A)[sp].d(T)[sp].[moe](T)p.[moe](T)p.[moe](G)[sp].[moe](G)}$$$$ (last 3' nucleoside missing)” gave a 3 h FOB score of 1 score 0-7. The same measure for “RNA1{[moe](A)[sp].[moe]([m5C])p.[moe](T)p.[moe](T)p.[moe](T)[sp].d(T)[sp].d([m5C])[sp].d(T)[sp].d([m5C])[sp].d(A)[sp].d(T)[sp].d(G)[sp].d(T)[sp].[moe](G)p.[moe]([m5C])p.[moe](G)[sp].[moe](G)}$$$$ (last 3' nucleoside missing)”: 3.25 score 0-7; for “RNA1{[moe](A)[sp].[moe]([m5C])p.[moe](T)p.[moe](T)p.[moe](T)p.[moe](T)p.d([m5C])[sp].d(T)[sp].d([m5C])[sp].d(A)[sp].d(T)[sp].d(G)[sp].d(T)[sp].d(G)[sp].d([m5C])[sp].d(G)[sp].[moe](G)p.[moe]([m5C])[sp].[moe](A)}$$$$ (last 3' nucleoside missing)”: 6.5 score 0-7; for “RNA1{[moe](A)[sp].[moe]([m5C])p.[moe](T)p.[moe](T)p.[moe](T)p.d(T)[sp].d([m5C])[sp].d(T)[sp].d([m5C])[sp].d(A)[sp].d(T)[sp].d(G)[sp].d(T)[sp].d(G)[sp].d([m5C])[sp].[moe](G)p.[moe](G)p.[moe]([m5C])[sp].[moe](A)}$$$$ (last 3' nucleoside missing)”: 5 score 0-7. Substance “RNA1{[moe](A)[sp].[moe]([m5C])p.[moe](T)p.[moe](T)p.[moe]([m5C])[sp].d(T)[sp].d([m5C])[sp].d(T)[sp].d(A)[sp].d(T)[sp].d(T)[sp].d(T)[sp].d([m5C])[sp].[moe](T)p.[moe](T)p.[moe](T)[sp].[moe](G)}$$$$ (last 3' nucleoside missing)” had a 3 h FOB score of 2 score 0-7. The same measure for “RNA1{[moe](A)[sp].[moe]([m5C])p.[moe](T)p.[moe](T)p.[moe]([m5C])p.[moe](T)p.d([m5C])[sp].d(T)[sp].d(A)[sp].d(T)[sp].d(T)[sp].d(T)[sp].d([m5C])[sp].d(T)[sp].d(T)[sp].d(T)[sp].[moe](G)p.[moe](T)[sp].[moe]([m5C])}$$$$ (last 3' nucleoside missing)”: 1.25 score 0-7.
